Results from PubChem BioAssay AID2060511 (Molecular Pharmacology Branch, DTP, NCI, 2025).
Several values for one entry are separate records, joined by “and”; a condition that tells them apart may be missing. Equal entries are not always repeated.

System: 422866-222-R5-J1-PDC spheroids with HUVEC/MSC, viability
Test: Anticancer human tumor 422866-222-R5-J1-PDC patient-derived pancreatic adenocarcinoma cell line growth inhibition [GQUAD]
Details: for viability, T/C: stronger effect = lower value
From the text: DNA G-quadruplex Stabilizer Agents in Combinations in Complex Spheroids
A high-throughput screen of multi-cell type tumor spheroids was designed to identify active combinations of DNA G-quadruplex stabilizer agents and targeted small molecules. Complex spheroids include a stromal component modeled by human endothelial cells (HUVEC) and fibroblasts modeled by human mesenchymal stem cells (MSCs). The concentration ranges selected for each drug and investigational agent were based upon clinically achievable concentrations if the clinical Cmax of the agent was known.
Compounds. The drugs and investigational agents: pidnarulex (CX-5461; NSC782164), APTO-253 (NSC789042), BRACO-19 (NSC847499), peposertib (NSC802822), ceralasertib (NSC780249), elimusertib (NSC800525), camonsertib (NSC841442), AZD-1390 (NSC803789), olaparib (NSC753686), talazoparib (NSC767125), ART-558 (NSC835418), sotorasib (NSC818433), MRTX-1133 (NSC836407), SN-38 (NSC673596), topotecan (NSC609699), etoposide (NSC141540), doxorubicin (NSC123127), gemcitabine (NSC613327), 5-fluorouracil (NSC19893), paclitaxel (NSC125973), vemurafenib (NSC761431), panobinostat (NSC761190), R-306465 (JNJ-16241199; NSC773264), adavosertib (NSC754352), TP-3654 (NSC805149), carboplatin (NSC241240), KSQ-4279 (NSC840948), and staurosporine (NSC755774) were obtained from the National Cancer Institute (NCI) Developmental Therapeutics Program Chemical Repository (34). The FDA-approved anticancer drug set is available from the NCI Developmental Therapeutics Program. […] The stock solutions were prepared in dimethyl sulfoxide (DMSO, Sigma-Aldrich, St. Louis, MO, cat. D2650) at 800-fold the tested concentration and stored at -70 degrees C prior to their use. All drugs and investigational agents were tested over a range starting from a high concentration at or near the clinical Cmax and decreasing in half-log increments. If the clinical Cmax for an agent had not been determined, the highest concentration tested was 10 microM.
2.3 Cell Culture. All cells were maintained in an incubator at 37 degrees C and 5% CO2 with 95% humidity. The PDC lines were cultured according to standard operating procedures established by the NCI PDMR. All PDCs were thawed and cultured in Matrigel-coated flasks prepared with a working solution of 1X Ham's F-12 nutrient mix, without supplementation (Invitrogen, cat. 11765054), 100 U/mL penicillin-streptomycin (Invitrogen, cat. 15140122), and 2.5% Matrigel (Corning Inc., cat. 354248) for the first three passages. The 857933-349-R-J2-PDC line was cultured in 6C/Colon 1B media, which includes advanced DMEM/F-12 (Thermo Fisher Scientific, cat. 12634028), 10 mM HEPES (Thermo Fisher Scientific, cat. 15630080), 1X GlutaMAX supplement (Thermo Fisher Scientific, cat. 35050061), 0.1 mg/mL primocin (InvivoGen, cat. ant-pm-2), 10% defined fetal bovine serum, heat inactivated (HyClone Laboratories Inc., cat. SH30070.03HI), 50% L-WRN conditioned media (ATCC, cat. CRL-3276), 1.25 mM N-Acetyl-L-cysteine (Sigma-Aldrich, cat. A9165), 10 mM nicotinamide (Sigma-Aldrich, cat. N0636), 1X B-27 supplement (Thermo Fisher Scientific, cat. 17504044), 1X N-2 supplement (Thermo Fisher Scientific, cat. 17502048), 10 microM Y-27632 dihydrochloride (Tocris Bioscience, cat. 1254), and 50 ng/mL human EGF recombinant protein (Thermo Fisher Scientific, cat. PHG0311). The 485176-168-R4-J1-PDC line was cultured in Panc media, which includes all 6C/Colon 1B media components plus 100 ng/mL human FGF-10 (Thermo Fisher Scientific, cat. 100-26), 500 nM SB-431542 (Selleckchem, cat. S1067), and gastrin (Tocris, cat. 3006).
[…]
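Also: spheroids exposed to compounds for seven days before reading.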
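For viability, T/C in this document: percent viability relative to DMSO vehicle control taken as 100%.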

CC(=O)O[C@H]1C(=O)[C@@]2(C)[C@H]([C@H](OC(=O)c3ccccc3)[C@]3(O)C[C@H](OC(=O)[C@H](O)[C@@H](NC(=O)c4ccccc4)c4ccccc4)C(C)=C1C3(C)C)[C@]1(OC(C)=O)CO[C@@H]1C[C@@H]2O was tested, and the viability, T/C (compound 0.0316 µM) was 96% and 75.6% and 77.1%, the viability, T/C (compound 0.1 µM) was 89.9% and 64.8% and 64.4% and the viability, T/C (compound 0.316 µM) was 82.1% and 66.5% and 76.9%. For the same compound, the viability, T/C (compound 1 µM) was 47.7% and 68.6% and 75.5%, the viability, T/C (compound 3.16 µM) was 39.7% and 75% and 67.1% and the IC50 (curve of compound) was 1460 nM and > 10000 nM.
For O=C(NO)c1cnc(N2CCN(S(=O)(=O)c3ccc4ccccc4c3)CC2)nc1, the viability, T/C (compound 0.0316 µM) was 69.6% and 96.6% and 94.7%, the viability, T/C (compound 0.1 µM) was 70.9% and 105% and 90% and the viability, T/C (compound 0.316 µM) was 69.7% and 92.5% and 88.2%. The viability, T/C (compound 1 µM) was 67% and 52.3% and 58.2%, the viability, T/C (compound 3.16 µM) was 74.3% and 29.5% and 37.5% and the IC50 (curve of compound) was > 10000 nM and 1340 nM and 1730 nM.
Work on COc1ccc([C@@H](O)c2cc(-c3ncnc4cc(N5CCOCC5)ccc34)c(F)cc2Cl)nn1 + Cc1cnc(CNC(=O)c2c(=O)c3ccc(N4CCCN(C)CC4)nc3n3c2sc2ccccc23)cn1 yielded an IC50 (curve of first compound, second compound 0.0316 µM) of 1390 nM, an IC50 (curve of first compound, second compound 0.1 µM) of 2050 nM and an IC50 (curve of first compound, second compound 0.316 µM) of 3660 nM. For the same compound, the IC50 (curve of first compound, second compound 1 µM) was 2360 nM, the IC50 (curve of first compound, second compound 3.16 µM) was 1940 nM and the IC50 (curve of first compound, second compound 10 µM) was 1800 nM. The viability, T/C (second compound 0.0316 µM, first compound 0.0316 µM) was 106%, the viability, T/C (second compound 0.0316 µM, first compound 0.1 µM) was 82.7% and the viability, T/C (second compound 0.0316 µM, first compound 0.316 µM) was 78.8%. For the same compound, the viability, T/C (second compound 0.0316 µM, first compound 1 µM) was 47.9%, the viability, T/C (second compound 0.0316 µM, first compound 3.16 µM) was 41.9% and the viability, T/C (second compound 0.0316 µM, first compound 10 µM) was 35.5%. It also gave a viability, T/C (second compound 0.1 µM, first compound 0.0316 µM) of 94.8%, a viability, T/C (second compound 0.1 µM, first compound 0.1 µM) of 87.4% and a viability, T/C (second compound 0.1 µM, first compound 0.316 µM) of 68.5%. It also gave a viability, T/C (second compound 0.1 µM, first compound 1 µM) of 57.1%, a viability, T/C (second compound 0.1 µM, first compound 3.16 µM) of 47.2% and a viability, T/C (second compound 0.1 µM, first compound 10 µM) of 39.3%. The viability, T/C (second compound 0.316 µM, first compound 0.0316 µM) was 97.3%, the viability, T/C (second compound 0.316 µM, first compound 0.1 µM) was 85.3% and the viability, T/C (second compound 0.316 µM, first compound 0.316 µM) was 72.8%. The viability, T/C (second compound 0.316 µM, first compound 1 µM) was 60.2%, the viability, T/C (second compound 0.316 µM, first compound 3.16 µM) was 54% and the viability, T/C (second compound 0.316 µM, first compound 10 µM) was 40.4%. For the same compound, the viability, T/C (second compound 1 µM, first compound 0.0316 µM) was 97.3%, the viability, T/C (second compound 1 µM, first compound 0.1 µM) was 87.4% and the viability, T/C (second compound 1 µM, first compound 0.316 µM) was 83.4%. It also gave a viability, T/C (second compound 1 µM, first compound 1 µM) of 62.8%, a viability, T/C (second compound 1 µM, first compound 3.16 µM) of 45.1% and a viability, T/C (second compound 1 µM, first compound 10 µM) of 35.5%. It also gave a viability, T/C (second compound 3.16 µM, first compound 0.0316 µM) of 90.9%, a viability, T/C (second compound 3.16 µM, first compound 0.1 µM) of 80.1% and a viability, T/C (second compound 3.16 µM, first compound 0.316 µM) of 78.5%. The viability, T/C (second compound 3.16 µM, first compound 1 µM) was 57.6%, the viability, T/C (second compound 3.16 µM, first compound 3.16 µM) was 43.6% and the viability, T/C (second compound 3.16 µM, first compound 10 µM) was 34%. For the same compound, the viability, T/C (second compound 10 µM, first compound 0.0316 µM) was 81.9%, the viability, T/C (second compound 10 µM, first compound 0.1 µM) was 78% and the viability, T/C (second compound 10 µM, first compound 0.316 µM) was 70.3%. The viability, T/C (second compound 10 µM, first compound 1 µM) was 55.9%, the viability, T/C (second compound 10 µM, first compound 3.16 µM) was 44.1% and the viability, T/C (second compound 10 µM, first compound 10 µM) was 31.6%.
Nc1ccn(C2OC(CO)C(O)C2(F)F)c(=O)n1 (configuration not stated) was tested, and the viability, T/C (compound 0.0316 µM) was 87.9% and 88.9% and 93.4%, the viability, T/C (compound 0.1 µM) was 66% and 76.8% and 74.1% and the viability, T/C (compound 0.316 µM) was 61.7% and 70.3% and 61.1%. For the same compound, the viability, T/C (compound 1 µM) was 51.8% and 55.9% and 40%, the viability, T/C (compound 3.16 µM) was 41.4% and 48.6% and 40% and the viability, T/C (compound 10 µM) was 40.8% and 39.7% and 38%. The IC50 (curve of compound) was 993 nM and 2480 nM and 598 nM.
In the case of C=CCn1c(=O)c2cnc(Nc3ccc(N4CCN(C)CC4)cc3)nc2n1-c1cccc(C(C)(C)O)n1, the viability, T/C (compound 0.0316 µM) is reported as 80.3% and 112% and 88.7%, the viability, T/C (compound 0.1 µM) is reported as 106% and 90.1% and 74.5% and the viability, T/C (compound 0.316 µM) is reported as 125% and 67.2% and 52.5%. The viability, T/C (compound 1 µM) was 143% and 39.7% and 40.5%, the viability, T/C (compound 3.16 µM) was 172% and 31.3% and 30.6% and the viability, T/C (compound 10 µM) was 99.8% and 32.3% and 27.9%.
